Experimental data: patent publication US20240254135A1, “POLYPHENOL COMPOUNDS” (Epirium Bio Inc., priority 2022, published 2024)

Experiments:
PGC-1α [1] = assay: In vivo PGC-1α expression in liver of LPS-treated mice (ELISA); parameters: species or system C57BL/6 mice; settings: for PGC-1α level / PGC-1α levels: liver, male C57BL/6 mice, LPS 3 mg/Kg IP + compound 10 mg/kg PO BID, 24 h post LPS; for PGC-1α levels: third set: Control 38327, LPS alone 16860
Protocol: C57BL/6 mice were procured from Vivo Bio Tech Ltd. Male mice were used for the study within an age range of 7 to 8 weeks. Body weight for these mice ranged from 20 g to 25 g. Animals were housed in a group of 6 in individually ventilated cages with temperature of 22±3° C., a relative humidity of 50 to 60%. The bottom of the cages was layered with sterilized corn cob. Animals were provided with gamma irradiated feed and autoclaved drinking water ad-libitum. The IVCs were maintained at an environment controlled (Centrally Air-Conditioned) room at a temperature of 22±3° C., a relative humidity of 50 to 60%, light intensity of 250-300 lux and a 12 hour light-dark cycle and noise intensity of <85 db.
Method of Preparation: LPS was dosed at 3 mg/kg in a dose volume of 10 ml/kg. For this, 0.3 mg/ml of LPS solution (Micronized suspension) was prepared. Butter paper was placed on analytical balance, tarred and LPS was placed on butter paper and its weight was noted down. LPS was transferred to 15 ml falcon tube. Then required amount of normal saline was added to it to make it 0.3 mg/ml. The solution was vortexed properly for 5 minutes and placed on ice. LPS solution was vortexed every time before aspiration and injection.
LPS was dosed at 3 mg/kg. Each test compound was dosed at 10 mg/kg, 2 hour and 15 min post LPS administration.
0.5% CMC was used as a vehicle with a dose volume of 10 ml/kg. An IP route was used for LPS, and a PO route was used for each test compound. Animals were sacrificed 24 hours post LPS dosing, and plasma were collected. PGC-1α level was measured in liver samples, and other tissues were stored for future analysis. PGC-1α level was checked using ELISA kit—CUSABIO Mouse PPARGCIA ELISA kit.
Protocol: One day before start of the experiment C57BL/6 Mice (Male, 6-7-week-old) were randomized on the basis of their body weight and were divided into groups. All the cages were assigned the respective group name. Animals inside each cage were marked on the base of the tails with permanent marker to distinguish each animal. Mice were fasted overnight. Next day morning animals were dosed with test item. Group 1 (Control) and Group 2 (LPS) Animals were dosed with vehicle (0.5% CMC). Test items were prepared in 0.5% CMC by trituration in mortar and pestle and addition of CMC drop by drop. 2 hour post test item/vehicle dosing animals were administered with LPS through IP route at 3 mg/kg of body weight. Group 1 (Control) animals were administered with saline. 0.25 hour post LPS administration, animals were again dosed with test item/vehicle. Post dosing, animals were returned to their respective cages and kept until termination of the study. No feed was offered to any group. Animals were provided with water. 24 hour post LPS administration, blood was collected from each animal under influence of mild isoflurane anesthesia through retro-orbital technique. Animals were sacrificed by CO2 asphyxiation technique. Post-termination, animals were dissected and vital organs, liver, brain, skeleton muscle were collected in Eppendorf tubes and flash frozen in liquid nitrogen. Serum was collected from whole blood by centrifuging it at 4° C. at 10,000 RPM and for 10 minutes. (Blood was left for 2 hour for coagulation before centrifugation) After completion of the experiment, all collected samples were stored at −80° C. until analysis.
Assay Methods/Protocol: The mortar was chilled with liquid nitrogen and then the small tissue pieces were grinded in the presence of liquid nitrogen to a fine powder. Immediately after grinding, transferred small amount of tissue powder to a 1.5 ml micro centrifuge tube containing 1.0 ml lysis buffer (RIPA buffer+Protease inhibitor). The samples were then incubated on ice for 2 hours. The samples were vortexed every 15 minutes. The samples were then centrifuged at 13000×g for 15 minutes at 2-8° C. After centrifugation the supernatant was removed carefully and pellet was discarded. […]

PGC-1α [2] = assay: In vitro PGC-1α expression in differentiated C2C12 cells (cell ELISA); assay type: cell-based
Protocol: Culture conditions: DMEM containing 25 mM glucose with 10% FBS supplementation; grown at 37° C. and 5% CO2.
Drugs: (+)Epicatechin, AICAR (direct activator of AMPK).
Assay Conditions: C2C12 cells were cultured in DMEM supplemented in 10% FBS up to 80% confluence. The cells were further trypsinized and seeded into a 96 well plate at a density of 5000 cells/well (well volume—100 μL) (Day 0). Following attachment, the cells were allowed to reach 80-90% confluence in the plate (typically 48 hours post seeding) and further differentiated using DMEM+2% Horse Serum (200 μL/well). The media was changed every day or at least every alternate day for 5 days to allow myoblasts to differentiate into myotubes. On day 7 (post seeding), the cells were treated with standards and test compounds for PGC-1 α assay.
PGC-1α assay: For the detection of PGC-1α, the cells were incubated with 0.5 μg/ml primary antibody (Merck, WH0010891M3) in PBS-T containing 5% BSA at 4° C. overnight. The cells were then washed three times with PBS-T for 5 minutes and incubated with 1:1000 dilution secondary antibody (Anti-rabbit IgG, HRP-linked Antibody, Cell Signaling) in PBS-T with 1% BSA for 1 hour at RT. Cells were washed three times with PBS-T for 5 minutes The cells were incubated with 100 μl TMB substrate solution for 30 minutes and the reaction was stopped with 100 μl of 2N H2SO4. […] (For plate optical density calculations, a background correction was taken at 540 nm). The final PGC-1α activation % is average of activation of 6 replicates.

[3] = as E23, relative to Control = 100, LPS alone 66
[4] = second set: Control 25677, LPS alone 16956
[5] = as E21, relative to Control = 100, LPS alone 51
[6] = as E25, relative to Control = 100, LPS alone 44
[7] = first set: Control 35303, LPS alone 18139
[8] = Table 3, differentiated C2C12 cells, 0.001 nM, DMSO control = 100%, OD@650 nm

Row | Compound | PGC-1α level (%) (PGC-1α [1]; [3]) | PGC-1α level (PGC-1α [1]; [4]) [pg/mL] | PGC-1α level (%) (PGC-1α [1]; [5]) | PGC-1α level (%) (PGC-1α [1]; [6]) | PGC-1α level (PGC-1α [1]; [7]) [pg/mL] | PGC-1α levels (PGC-1α [1]) [pg/mL] | % Activity (PGC-1α expression) (PGC-1α [2]; [8]) [%] | also measured
1 | Oc1ccc2c(c1)OC(c1ccc(O)c(C(F)(F)F)c1)C(O)C2 (single isomer, unassigned) [Compound 77b, 2-(4-hydroxy-3-(trifluoromethyl)phenyl)chromane-3,7-diol] | 148 | 37954 |  |  |  |  |  | % Activity (PGC-1α expression) (PGC-1α [2]; Table 6, C2C12 cells, 5000 cells/well, 0.01 nM): 138%; % Activity (PGC-1α expression) (PGC-1α [2]; Table 7, C2C12 cells, 5000 cells/well, 0.01 nM, DMSO = 100): 135%
2 | Oc1cc(O)c2c(c1)OC(c1ccc(O)c(F)c1)C(O)C2 (single isomer, unassigned) [Compound 76b, 2-(3-fluoro-4-hydroxyphenyl)chromane-3,5,7-triol] | 81 | 20790 |  |  |  |  |  | % Activity (PGC-1α expression) (PGC-1α [2]; Table 5, differentiated C2C12, 5000 cells/well, 0.01 nM, DMSO = 100): 128%
3 | Oc1cc(O)c2c(c1)O[C@H](c1ccc(O)c(O)c1)[C@H](O)C2 [Epicatechin, (+)Epicatechin, reference compound] | 122 | 31225 | 90 | 71 | 31729 | 27272 | 119 | % Activity (PGC-1α expression) (PGC-1α [2]; Table 4, differentiated C2C12 cells, 0.001 nM, OD at 5 minutes): 120%; % Activity (PGC-1α expression) (PGC-1α [2]; Table 5, differentiated C2C12, 5000 cells/well, 0.001 nM, DMSO = 100): 133%; % Activity (PGC-1α expression) (PGC-1α [2]; Table 6, C2C12 cells, 5000 cells/well, 0.001 nM): 127%; % Activity (PGC-1α expression) (PGC-1α [2]; Table 7, C2C12 cells, 5000 cells/well, 0.001 nM, DMSO = 100): 133%; % Activity (PGC-1α expression) (PGC-1α [2]; Table 8, C2C12 cells, 5000 cells/well, 0.001 nM, DMSO = 100): 139%
4 | COc1cc(C2Oc3ccccc3CC2O)ccc1F (single isomer, unassigned) [Compound 75b, 2-(4-fluoro-3-methoxyphenyl)chroman-3-ol] |  |  | 92 |  | 32354 |  | 125 | % Activity (PGC-1α expression) (PGC-1α [2]; Table 3, differentiated C2C12 cells, 0.0001 nM, DMSO control = 100%): 118%; % Activity (PGC-1α expression) (PGC-1α [2]; Table 3, differentiated C2C12 cells, 0.01 nM, DMSO control = 100%): 122%; % Activity (PGC-1α expression) (PGC-1α [2]; Table 3, differentiated C2C12 cells, 0.1 nM, DMSO control = 100%): 116%; % Activity (PGC-1α expression) (PGC-1α [2]; Table 3, differentiated C2C12 cells, 1 nM, DMSO control = 100%): 120%; % Activity (PGC-1α expression) (PGC-1α [2]; Table 4, differentiated C2C12 cells, 0.01 nM, OD at 5 minutes): 130%
5 | Oc1cc(O)c2c(c1)OC(c1ccccc1)C(O)C2 (single isomer, unassigned) [Compound 78a, 2-phenylchromane-3,5,7-triol] |  |  |  | 96 |  | 36967 |  | % Activity (PGC-1α expression) (PGC-1α [2]; Table 8, C2C12 cells, 5000 cells/well, 0.01 nM, DMSO = 100): 128%
